Active and inactive are the calls of the source. No cut-off for these calls is given here.
Tests used:
Pseudomonas aeruginosa [1] = test: Antibacterial activity against Pseudomonas aeruginosa PAO1 infected in Caenorhabditis elegans assessed as worm survival rate at 2.5 ug/ml incubated for 60 hrs by bright-field microscopy relative to control; format: functional
Pseudomonas aeruginosa [2] = test: Synergistic antibacterial activity against Pseudomonas aeruginosa PAO1 infected in Caenorhabditis elegans assessed as worm survival rate at 2.5 ug/ml incubated for 72 hrs in presence of compound 16e by bright-field microscopy relative to control; format: functional
Pseudomonas aeruginosa [3] = test: Antibacterial activity against Pseudomonas aeruginosa PAO1 assessed as inhibition of biofilm formation incubated for 24 hrs by crystal violet staining analysis; format: functional, organism-based
Pseudomonas aeruginosa [4] = test: Synergistic antibacterial activity against Pseudomonas aeruginosa PAO1 infected in Caenorhabditis elegans assessed as worm survival rate at 50 uM incubated for 72 hrs in presence of tobramycin by bright-field microscopy relative to control; format: functional
[5] = Inhibition of quorum sensing system in Pseudomonas aeruginosa PAO1 assessed as inhibition of elastase production at 10 uM incubated for 24 hrs by elastin-congo red dye based optical density based analysis relative to control
Pseudomonas aeruginosa [6] = test: Anti-motility activity against Pseudomonas aeruginosa PAO1 assessed as reduction in swarming incubated for 16 hrs by crystal violet staining analysis; format: functional, organism-based
[7] = Inhibition of quorum sensing system in Pseudomonas aeruginosa PAO1 assessed as inhibition of pyocyanin production incubated for 24 hrs by optical density based analysis
[8] = Inhibition of quorum sensing system in Pseudomonas aeruginosa PAO1 transfected with lasB-gfp reporter assessed as decrease in GFP fluorescence expression at 0.625 to 10 uM incubated for 16 hrs by microplate reader assay; details: dose 0.625-10 µM
Pseudomonas aeruginosa [9] = test: Antivirulence activity against Pseudomonas aeruginosa clinical isolate 1121 assessed as reduction of pyocyanin production at 10 uM incubated for 24 hrs by optical density based analysis relative to control; format: functional; set-up: scale not given: the % may be the effect or the level left
Pseudomonas aeruginosa [10] = test: Synergistic antibacterial activity against Pseudomonas aeruginosa clinical isolate 1121 assessed as reduction in bacterial viability at 10 uM incubated for 24 hrs in presence of ciprofloxacin at 1/2 to 1/8 times of MIC; format: functional, organism-based
Pseudomonas aeruginosa [11] = test: Synergistic antibacterial activity against Pseudomonas aeruginosa clinical isolate 1167 assessed as reduction in bacterial viability at 10 uM incubated for 24 hrs in presence of tobramycin at 1/2 to 1/8 times of MIC; format: functional, organism-based
Pseudomonas aeruginosa [12] = test: Synergistic antibacterial activity against Pseudomonas aeruginosa PAO1 infected in Caenorhabditis elegans assessed as worm survival rate at 10 uM incubated for 72 hrs in presence of tobramycin by bright-field microscopy relative to control; format: functional
Vero [13] = test: Cytotoxicity against African green monkey Vero cells at 1.56 to 50 uM incubated for 24 hrs by MTT assay; format: toxicity, cell-based; details: chlorocebus sabaeus, dose 1.56-50 µM
Pseudomonas aeruginosa [14] = test: Inhibition of iron homeostasis in Pseudomonas aeruginosa PAO1 assessed as decrease in pyoverdine production at 5 to 20 uM incubated for 24 hrs by fluorescence based microplate reader analysis; format: functional, organism-based; details: dose 5-20 µM
Pseudomonas aeruginosa [15] = test: Synergistic antibacterial activity against Pseudomonas aeruginosa PAO1 infected in Caenorhabditis elegans assessed as worm survival rate at 10 uM incubated for 72 hrs in presence of ciprofloxacin by bright-field microscopy relative to control; format: functional
Pseudomonas aeruginosa [16] = test: Synergistic antibacterial activity against Pseudomonas aeruginosa clinical isolate 1121 assessed as reduction in bacterial viability at 10 uM incubated for 24 hrs in presence of tobramycin at 1/2 to 1/8 times of MIC; format: functional, organism-based
Pseudomonas aeruginosa [17] = test: Antibacterial activity against Pseudomonas aeruginosa PAO1 infected in Caenorhabditis elegans assessed as increase in worm survival by measuring survival time at 10 uM by bright-field microscopy; format: functional
Pseudomonas aeruginosa [18] = test: Antibacterial activity against Pseudomonas aeruginosa PAO1 assessed as inhibition of biofilm formation at 50 uM incubated for 24 hrs by crystal violet staining analysis relative to control; format: functional; set-up: scale not given: the % may be the effect or the level left
Vero [19] = test: Cytotoxicity against African green monkey Vero cells at 100 uM incubated for 24 hrs by MTT assay; format: toxicity, cell-based; details: chlorocebus sabaeus
[20] = Inhibition of quorum sensing system in Pseudomonas aeruginosa PAO1 assessed as inhibition of pyocyanin production at 0.625 uM incubated for 24 hrs by optical density based analysis relative to control
Pseudomonas aeruginosa [21] = test: Antivirulence activity against Pseudomonas aeruginosa clinical isolate FB assessed as reduction of pyocyanin production at 10 uM incubated for 24 hrs by optical density based analysis relative to control; format: functional; set-up: scale not given: the % may be the effect or the level left
Pseudomonas aeruginosa [22] = test: Synergistic antibacterial activity against Pseudomonas aeruginosa clinical isolate 1167 assessed as reduction in bacterial viability at 10 uM incubated for 24 hrs in presence of ciprofloxacin at 1/2 to 1/8 times of MIC; format: functional, organism-based
[23] = Inhibition of quorum sensing system in Pseudomonas aeruginosa PAO1 assessed as inhibition of rhamnolipid production at 0.625 to 20 uM incubated for 24 hrs by optical density based analysis; details: dose 0.625-20 µM
Pseudomonas aeruginosa [24] = test: Synergistic antibacterial activity against Pseudomonas aeruginosa PAO1 assessed as reduction in bacterial viability at 10 uM incubated for 24 hrs in presence of ciprofloxacin at 1/2 to 1/8 times of MIC; format: functional, organism-based
Pseudomonas aeruginosa [25] = test: Synergistic antibacterial activity against Pseudomonas aeruginosa clinical isolate 1129 assessed as reduction in bacterial viability at 10 uM incubated for 24 hrs in presence of tobramycin at 1/2 to 1/8 times of MIC; format: functional, organism-based
Pseudomonas aeruginosa [26] = test: Antibacterial activity against Pseudomonas aeruginosa PAO1 infected in Caenorhabditis elegans assessed as increase in worm survival by measuring survival time at 50 uM by bright-field microscopy; format: functional
[27] = Inhibition of quorum sensing system in Pseudomonas aeruginosa PAO1 transfected with GFP reporter assessed as decrease in GFP fluorescence expression at 1.25 to 10 uM incubated for 16 hrs by microplate reader assay; details: dose 1.25-10 µM
[28] = Toxicity in Caenorhabditis elegans assessed as effect on survival at 100 uM incubated for 60 hrs by bright-field microscopy
Pseudomonas aeruginosa [29] = test: Synergistic antibacterial activity against Pseudomonas aeruginosa PAO1 assessed as reduction in bacterial viability at 10 uM incubated for 24 hrs in presence of tobramycin at 1/2 to 1/8 times of MIC; format: functional, organism-based
Pseudomonas aeruginosa [30] = test: Antibacterial activity against Pseudomonas aeruginosa PAO1 infected in Caenorhabditis elegans assessed as worm survival rate at 0.125 ug/ml incubated for 72 hrs by bright-field microscopy relative to control; format: functional
[31] = Binding affinity to recombinant PqsR LBD (94 to 332 residues) (unknown origin) expressed in Escherichia coli BL21 (DE3) assessed as dissociation constant by isothermal titration calorimetry
[32] = Inhibition of quorum sensing system in Pseudomonas aeruginosa PAO1 transfected with rhlA-gfp reporter assessed as decrease in GFP fluorescence expression at 0.625 to 10 uM incubated for 16 hrs by microplate reader assay; details: dose 0.625-10 µM
Pseudomonas aeruginosa [33] = test: Synergistic antibacterial activity against Pseudomonas aeruginosa clinical isolate FB assessed as reduction in bacterial viability at 10 uM incubated for 24 hrs in presence of ciprofloxacin at 1/2 to 1/8 times of MIC; format: functional, organism-based
[34] = Metal chelating activity assessed as compound-Fe3+ complex formation by measuring fluorescence signal by fluorescence spectrophotometry
Pseudomonas aeruginosa [35] = test: Antivirulence activity against Pseudomonas aeruginosa PA14 assessed as reduction of pyocyanin production at 10 uM incubated for 24 hrs by optical density based analysis relative to control; format: functional; set-up: scale not given: the % may be the effect or the level left
Pseudomonas aeruginosa [36] = test: Anti-motility activity against Pseudomonas aeruginosa PAO1 assessed as reduction in twitching incubated for 16 hrs by crystal violet staining analysis; format: functional, organism-based
[37] = Inhibition of quorum sensing system in Pseudomonas aeruginosa PAO1 transfected with pqsA-gfp reporter assessed as decrease in GFP fluorescence expression incubated for 16 hrs by microplate reader assay
Pseudomonas aeruginosa [38] = test: Anti-motility activity against Pseudomonas aeruginosa PAO1 assessed as reduction in swimming incubated for 16 hrs by crystal violet staining analysis; format: functional, organism-based
Pseudomonas aeruginosa [39] = test: Synergistic antibacterial activity against Pseudomonas aeruginosa clinical isolate 1129 assessed as reduction in bacterial viability at 10 uM incubated for 24 hrs in presence of ciprofloxacin at 1/2 to 1/8 times of MIC; format: functional, organism-based
Pseudomonas aeruginosa [40] = test: Inhibition of iron homeostasis in Pseudomonas aeruginosa PAO1 assessed as decrease in pyochelin production at 1.25 to 20 uM incubated for 24 hrs by fluorescence based microplate reader analysis; format: functional, organism-based; details: dose 1.25-20 µM
Pseudomonas aeruginosa [41] = test: Synergistic antibacterial activity against Pseudomonas aeruginosa clinical isolate FB assessed as reduction in bacterial viability at 10 uM incubated for 24 hrs in presence of tobramycin at 1/2 to 1/8 times of MIC; format: functional, organism-based
Pseudomonas aeruginosa [42] = test: Synergistic antibacterial activity against Pseudomonas aeruginosa PAO1 infected in Caenorhabditis elegans assessed as worm survival rate at 50 uM incubated for 72 hrs in presence of ciprofloxacin by bright-field microscopy relative to control; format: functional
[43] = Inhibition of quorum sensing system in Pseudomonas aeruginosa PAO1 assessed as inhibition of pyocyanin production at 10 uM incubated for 24 hrs by optical density based analysis relative to control

## NC[C@H]1O[C@H](O[C@H]2[C@H](O)[C@@H](O[C@H]3O[C@H](CO)[C@@H](O)[C@H](N)[C@H]3O)[C@H](N)C[C@@H]2N)[C@H](N)C[C@@H]1O [TOBRAMYCIN]
Pseudomonas aeruginosa [1]
  survival at 2.5 µg/mL: 18.1%
Pseudomonas aeruginosa [2]
  survival at 2.5 µg/mL: 46.7%

## Cc1cc(=O)c(O)c(CNCc2cn(-c3ccc(Oc4ccccc4)cc3)nn2)n1C
Pseudomonas aeruginosa [3]
  Activity: Dose-Dependent Effect
Pseudomonas aeruginosa [4]
  survival at 50 µM: 82.3%
[5]
  inhibition: 26.7%
Pseudomonas aeruginosa [6]
  Activity: Dose-Dependent Effect
[7]
  IC50: 2700 nM
[8]
  inhibition: Active
Pseudomonas aeruginosa [9]
  Activity: 41.1%
Pseudomonas aeruginosa [10]
  Activity: Active
Pseudomonas aeruginosa [11]
  Activity: inactive
Pseudomonas aeruginosa [12]
  survival at 10 µM: 46.7%
Vero [13]
  Activity: Non-Toxic
Pseudomonas aeruginosa [14]
  inhibition: inactive
Pseudomonas aeruginosa [15]
  survival at 10 µM: 35.7%
Pseudomonas aeruginosa [16]
  Activity: Active
Pseudomonas aeruginosa [17]
  Survival: 30 h
Pseudomonas aeruginosa [18]
  Activity: ~50%
Vero [19]
  Activity: Toxic
[20]
  inhibition: 30%
Pseudomonas aeruginosa [21]
  Activity: 32.2%
Pseudomonas aeruginosa [22]
  Activity: inactive
[23]
  inhibition: inactive
Pseudomonas aeruginosa [24]
  Activity: Active
Pseudomonas aeruginosa [25]
  Activity: Active
Pseudomonas aeruginosa [26]
  Survival: 36 h
[27]
  inhibition: inactive
[28]
  Activity: Non-Toxic
Pseudomonas aeruginosa [29]
  Activity: Active
Pseudomonas aeruginosa [30]
  survival at 0.125 µg/mL: 13.1%
[31]
  Kd: 1100 nM
[32]
  inhibition: inactive
Pseudomonas aeruginosa [33]
  Activity: Active
[34]
  Activity: 22.4
Pseudomonas aeruginosa [35]
  Activity: 50.9%
Pseudomonas aeruginosa [36]
  Activity: Dose-Dependent Effect
[37]
  IC50: 3700 nM
Pseudomonas aeruginosa [38]
  Activity: Dose-Dependent Effect
Pseudomonas aeruginosa [39]
  Activity: Active
Pseudomonas aeruginosa [40]
  inhibition: inactive
Pseudomonas aeruginosa [41]
  Activity: Active
Pseudomonas aeruginosa [42]
  survival at 50 µM: 87.1%
[43]
  inhibition: 69.9%

Reference: ChEMBL document CHEMBL5344424, “3-Hydroxypyridin-4(1H)-one Derivatives as pqs Quorum Sensing Inhibitors Attenuate Virulence and Reduce Antibiotic Resistance in Pseudomonas aeruginosa” (J Med Chem, 2023)
